Test results published in patent US5525503A, “Signal transduction via CD28” (priority 1993, dated 1996).

Experiments:
CD28 signalling = conditions: cited from earlier work
PI 3-kinase = assay: CD28-associated PI 3-kinase lipid kinase activity of CD28 mutants in transfected Cos-1 cells after anti-CD28 crosslinking (TLC, laser densitometry); type: cell-based; conditions: relative to wild type CD28
Text: FIG. 8 is a photograph of TLC analysis of lipid products following CD28 crosslinking. Cos-1 cells were transfected with wild type CD28 (WT) (lane 2), Tyr-191 to Phe mutant (F191) (lane 3), Met-194 to Cys (C194) (lane 4), and Tyr-209 to Phe (F209) (lane 5). Transfected cells were then subjected to anti-CD28 crosslinking, immunoprecipitation and lipid kinase analysis. Non-transfected cells served as a negative control (lane 1), while immunoprecipitation with anti-p85 antibody served as a positive control (lane 6).
FIG. 9 is a bar graph showing relative autoradiographic intensities of PI-P spots detected in the TLC analysis shown in FIG. 8. Intensity was quantitated by laser densitometric scanning.
The lipid kinase reaction was carried out on beads using soybean phosphatidyl inositol liposomes and γ32P-ATP (20 μCi). Lipids were then extracted using chloroform and methanol (1:1) and separated by thin layer chromatography on a silica gel plate precoated with potassium oxalate using a basic system (chloroform, methanol, water, ammonium hydroxide (60:47:11.3:2), as described in Whitman et al., supra and Auger et al., supra. The corresponding TLC spots were cut, counted for Cherenkov counts and extracted with a solution containing methylamine, methanol and n-butanol (57.7 ml of 25% methylamine in water, 61.6 ml of methanol and 15.6 ml of n-butanol) for 1 h at 53° C. This method also results in the deacylation of lipids. The samples were dried under vacuum and reconstituted in water. […] The deacylated phospholipids were analyzed on a Beckman HPLC system using an ion exchange column and a gradient of NH4 HPO4. ^3 H-PI-4P and adenosine diphosphate were used as internal standards.
Amino acid residues at positions Tyr-191, Met-194 and Tyr-209 were mutated using a site-directed mutagenesis system from Promega (Madison, Wis.). […] Cells were assessed for cell surface expression of CD28 by fluorescence-activated cell sorting (FACS) (EPICS, Coulter Immunology, Hialeah, Fla.). […]

[1] = molecular target: association of PI 3-kinase with CD28 (Homo sapiens, UniProt P27986); assay: Peptide competition: displacement of PI 3-kinase from CD28 (anti-CD28 immunoprecipitation, anti-p85 immunoblotting); type: binding; conditions: peptide 10-50 μM; longer exposure of autoradiograph
Sequence of association of PI 3-kinase with CD28 (P27986 whole entry): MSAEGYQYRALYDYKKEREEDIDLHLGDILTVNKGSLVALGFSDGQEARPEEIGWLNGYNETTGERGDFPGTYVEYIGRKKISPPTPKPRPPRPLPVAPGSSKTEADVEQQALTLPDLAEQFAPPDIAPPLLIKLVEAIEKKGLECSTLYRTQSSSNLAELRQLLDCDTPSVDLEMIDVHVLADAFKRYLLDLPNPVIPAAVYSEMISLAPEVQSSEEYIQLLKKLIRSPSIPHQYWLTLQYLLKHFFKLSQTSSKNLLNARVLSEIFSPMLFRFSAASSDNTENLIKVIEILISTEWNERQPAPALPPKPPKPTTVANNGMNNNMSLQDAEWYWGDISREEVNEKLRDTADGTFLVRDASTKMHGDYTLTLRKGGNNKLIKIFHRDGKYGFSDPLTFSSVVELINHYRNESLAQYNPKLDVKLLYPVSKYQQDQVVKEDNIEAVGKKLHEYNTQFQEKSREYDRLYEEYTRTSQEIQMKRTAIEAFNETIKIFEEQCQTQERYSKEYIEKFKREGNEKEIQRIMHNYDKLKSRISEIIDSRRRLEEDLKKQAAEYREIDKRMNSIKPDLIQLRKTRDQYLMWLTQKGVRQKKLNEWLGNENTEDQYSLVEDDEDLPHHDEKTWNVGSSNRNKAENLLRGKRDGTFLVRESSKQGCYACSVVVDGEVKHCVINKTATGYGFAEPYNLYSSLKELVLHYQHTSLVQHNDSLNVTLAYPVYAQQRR

Compound: cholera toxin
- sensitivity of CD28 signalling to the reagent (CD28 signalling): resistant

Compound: C=CC[C@@H]1/C=C(\C)C[C@H](C)C[C@H](OC)[C@H]2O[C@@](O)(C(=O)C(=O)N3CCCC[C@H]3C(=O)O[C@H](/C(C)=C/[C@@H]3CC[C@@H](O)[C@H](OC)C3)[C@H](C)[C@@H](O)CC1=O)[C@H](C)C[C@@H]2OC [FK506]
- sensitivity of CD28 signalling to the reagent (CD28 signalling): resistant

Compound: F209: CD28 with distal Tyr-209 mutated to Phe, control mutant
- effect of CD28 mutation on associated PI 3-kinase (TLC, in words) (PI 3-kinase): no effect relative to the wild type control

Compound: CSCC[C@H](NC(=O)[C@@H]1CCCN1C(=O)[C@H](CCSC)NC(=O)[C@H](Cc1ccc(OP(=O)(O)O)cc1)NC(=O)[C@H](CCC(=O)O)NC(=O)[C@H](CCC(=O)O)NC(=O)[C@@H](N)CCC(=O)O)C(=O)N[C@@H](CCC(=O)O)C(=O)N[C@@H](CC(=O)O)C(=O)N[C@@H](CC(C)C)C(=O)N[C@@H](Cc1ccc(O)cc1)C(=O)N[C@@H](CC(C)C)C(=O)O [Glu-Glu-Glu-Tyr-Met-Pro-Met-Glu-Asp-Leu-Tyr-Leu]
- reduction of the level of CD28-associated p85 PI 3-kinase [1]: 60-80%

Compound: C194: CD28 with Met-194 mutated to Cys by site-directed mutagenesis
- effect of CD28 mutation on associated PI 3-kinase (TLC, in words) (PI 3-kinase): partial effect in reducing the level of associated kinase
- reduction of CD28-associated PI 3-kinase activity (laser densitometry of PI-P spots) (PI 3-kinase): approximately 40%
